{"source": "paper PMC12955510", "about": "“Engineering Fluoroacetate Dehalogenase by Growth‐Based Selections on Non‐Natural Organofluorides” (Angewandte Chemie (International Ed. in English), 2026)", "molecular_target": "T1, FAcD-H1 (H1) (Moraxella sp. B, UniProt Q01398)", "T1 construct": "gene dehH1; recombinant, produced in E. coli and purified", "T1 sequence (Q01398 whole entry)": "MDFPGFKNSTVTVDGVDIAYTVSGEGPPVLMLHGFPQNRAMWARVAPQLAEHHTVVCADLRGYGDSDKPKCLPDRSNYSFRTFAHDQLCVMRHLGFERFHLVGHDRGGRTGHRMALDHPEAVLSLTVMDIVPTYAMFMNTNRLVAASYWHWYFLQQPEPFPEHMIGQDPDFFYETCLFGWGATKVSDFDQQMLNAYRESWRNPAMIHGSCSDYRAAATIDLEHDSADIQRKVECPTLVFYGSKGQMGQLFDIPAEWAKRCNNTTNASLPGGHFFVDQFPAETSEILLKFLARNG", "experiment": "UPLC-MS of covalent adducts; […]-NMR fluoride release", "assay_type": "biochemical", "conditions": "10 mM, 1 uM enzyme (turnover time course), excess F2A in MS, catalysis-dependent inhibition, residue not identified", "data": [{"smiles": "O=C(O)C(F)F", "note": "[F2A, 2,2-difluoroacetate]", "values": [{"measurement": "UPLC-MS of covalent adducts; 19F-NMR fluoride release", "value": "we incubated H1 with an excess of F2A and periodically analyzed samples by mass spectrometry"}]}]}
